Literature values in publication PMC12675671 (Nature Communications, 2025).

System: WT LRRK2

SMILES: COc1cc(C(=O)N2CCC(N3CCN(C)CC3)CC2)ccc1Nc1ncc2c(n1)N(C)c1ccccc1C(=O)N2C [LRRK2-IN-1]
- pIC50 (experimental values), WT: 8.509
